Source: patent US20050042300A1, “Use of colostrinin, constituent peptides thereof, and analogs thereof as inhibitors of apoptosis and other cellular damage” (priority 2002, published 2005)

Key:
Assay type in all cases: cell-based
[1] = system: 4HNE-protein adducts in PC12 cells; assay: 4HNE-protein adduct formation, immunocytochemistry / fluorescent microscopy
Excerpt: Cell cultures: Pheochromocytoma (PC12) cells were provided by Dr. Regino Perez-Polo (University of Texas Medical Branch, Department of Human Biological Chemistry and Genetics) and maintained in EMEM supplemented with 10% fetal bovine serum, penicillin (100 IU/ml) and streptomycin (100 micrograms per milliliter (μg/ml)). Exponentially growing populations of PC12 cells were sub-cultured and used for all experiments. Immunocytochemistry: […] Cells were permeabilized by 0.3% Triton X-100, washed in PBS then incubated with primary antibody in PBS containing 0.05% Tween 20 (PBS-T). After washing 3 times in PBS-T, FITC-labeled anti-rabbit IgG (Santa Cruz Biotechnology Inc.) was added. Cells were washed (5 times, for 10 min) with PBS-T and mounted on microscope slides in anti-fade solution (Dako, Inc.). Images of cellular immunofluorescence were acquired using a NIKON Eclipse TE300 scanning microscope. Fluorescent microscopy and Western blot analysis was undertaken to investigate the extent of 4HNE protein-adduct formation in cultures of PC12 cells in the presence of CLN. Cells were pretreated with CLN or LAH in the presence or absence of 4HNE and then analyzed for the formation of 4HNE-protein adducts.

[2] = system: 4HNE-protein adducts in PC12 cells; assay: 4HNE-protein adduct levels, Western blot analysis; details: 4HNE alone 25, 12.5, 6.2 nM
Description: (§1) Western blot analysis: PC12 cells were plated at 7×10^6 cells/T75 flask. After exposure to 4HNE, colostrinin or their combination, cells were collected and lysed in 50 millimolar (mM) Tris, 5 mM EDTA, 150 mM NaCI, 0.5% NP-40, 10% glycerol and protease inhibitor cocktail (supplemented with 1 mM Na3VO4, 2 mM EDTA, 1 mM phenylmethylsulfonyl fluoride). Lysates were centrifuged at 14,000 g for 10 minutes (min) (4° C.) and 40 μg of protein was fractionated on a 10% SDS-polyacrylamide gel and transferred to protein-optimized membranes (Amersham, Inc.). p53 was detected using specific antibody (DO1; Santa Cruz Biotechnology, Inc.) at a dilution of 1:300. Adducts were detected using an antibody to HNE-protein adducts (Pharmingen, Inc.) at a dilution of 1:500. The anti-phospho-JNK antibody (New England Biolabs, Inc., Beverly, Mass.) was raised against a synthetic phosphopeptide (SFMMT*PY*VVTRYYR) corresponding to residues 179-193 of JNK. For visualization of primary antibody binding, all blots were incubated with horseradish peroxidase-conjugated secondary antibody (Amersham, Inc.) at a dilution of 1:2000, followed by chemiluminescence detection (Amersham, Inc.) and autoradiography.
To confirm the results generated by immunochemistry, Western blot analysis was used to investigate changes in 4HNE-protein adduct levels in cells treated with 4HNE alone or CLN plus 4HNE.

[3] = system: intracellular GSH levels in PC12 cells; assay: Intracellular glutathione (GSH), o-phthalaldehyde fluorescence
Description: Measurement of glutathione (GSH): In brief, PC12 cells were mock- or pre-treated with CLN or lactalbumin hydrolysate (LAH), both in 10 μg/ml concentration and then exposed to 4HNE (25 nM). PBS-washed (twice) cells were then extracted with 25% (w/v) metaphosphoric acid solution containing 5 mM EDTA. After ultracentrifugation (105,000 g for 30 min), 100 μl of 100 mM phosphate solution (pH 8.0) containing 5 mM EDTA and 10 μl of o-phthalaldehyde OPA(OPD; Molecular Probes, Inc.) was added to the supernatant, and the fluorescence intensity at 420 nm determined with excitation set at 350 nm (A. P. Senft et al., Anal Biochem., 280:80-86 (2000)).
To investigate whether the anti-oxidant effect of CLN was due to protection of intracellular GSH levels, PC12 cells were pre-treated (with CLN or LAH) and exposed to 4HNE, as described above, and changes in GSH levels were determined fluorimetrically. […] OPA (o-phthalaldehyde or phthalic dicarboxaldehyde) is highly fluorescent when it is conjugated to GSH (A. P. Senft et al., Anal Biochem., 280:80-86 (2000)).

[4] = system: GSH extrusion from PC12 cells; assay: Reduced GSH in extracellular fluid (GSH extrusion), OPA-GSH fluorescence; details: 4HNE, relative to CLN- or mock-treated cells, data not shown
Description: To determine whether the loss of intracellular GSH was due to it's extrusion from the cells or oxidation, the level of reduced GSH in the extra-cellular fluid was evaluated.

JNK = assay: 4HNE-induced JNK phosphorylation, Western blot with anti-phospho-(Thr-183/Tyr-185) JNK antibody; details: PC12 cells
Description: as §1, with “For visualization of primary antibody binding, all blots were incubated with horseradish peroxidase-conjugated secondary antibody (Amersham, Inc.) at a dilution of 1:2000, followed by chemiluminescence detection (Amersham, Inc.) and autoradiography.” left out
The effect of CLN on 4HNE-induced activation of JNK in PC12 cells was investigated. The activation of JNK was monitored by Western blot analysis using a highly specific anti-phospho- (Thr-183/Tyr-185) JNK antibody (Materials and Methods).

p53 = assay: 4HNE-induced activation of p53, Western blot; details: PC12 cells; 4HNE alone
Description: as §1
Whether CLN could modulate p53 levels after 4HNE exposure was also investigated.

PC12 cells = assay: 4HNE-induced apoptosis, annexin V-PE / 7-AAD flow cytometry
Excerpt: Apoptosis is a specific mode of cell death recognized by a characteristic pattern of morphological, biochemical, and molecular changes. Currently the hallmark of apoptosis in vitro is DNA fragmentation and changes in plasma membrane reorganization that allows for the surface expression of phosphatidyl-D-serine and result in increased membrane permeability. The protection of cells against 4HNE by CLN using increased permeability and cell membrane expression of phosphatidyl-D-serine was investigated.
Cells were simultaneously labeled with fluorochrome-conjugated annexin V-PE (detecting PS asymmetry in the plasma membrane, an early marker of apoptosis), 7-aminoactinomycin D (7-AAD) (detecting increased membrane permeability associated with both apoptosis and necrosis). A dual laser flow cytometer (either a Becton-Dickinson FACScan) was used for the simultaneous detection of the PE-conjugated annexin V (which is excited at […]), 7-AAD (excited at 488 nm and emitting at 670 nm). Fluorochrome compatibility was excellent, although careful intralaser compensation is required for simultaneous use of PE and 7-AAD.

SH-SY5Y cells = assay: Protection against retinoic acid toxicity in SH-SY5Y cells, graded under the microscope; details: for DIFFERENTIATION: Retinoic Acid 20 μM (Day 1) alone
Description: Retinoic Acid was left on the plate for the duration of the experiment or until washed off. Colostrinin was added to the plate at the indicated doses. When added on Day 1, it was present during the entire experiment. When added on Day 5, it was incubated on the plate for 30 minutes at 37° C. and then removed. The wells were washed twice with PBS before adding β-Amyloid. Cultures were then observed under the microscope and graded.

## CCCCCC(O)/C=C/C=O (stereo not drawn) [4HNE]
[1]; 4HNE 25 nM alone
  fluorescence due to antibody binding to 4HNE-protein adducts: bright fluorescence
[2]
  levels of 4HNE-protein adducts (Western blot): significant increase
[3]; 25 nM 4HNE
  loss of GSH: more than 50%
[3]; 4HNE 25 nM alone, 30 min
  intracellular GSH levels (OPA-GSH fluorescence): significant reduction
[4]
  OPA-GSH-mediated fluorescence of extracellular fluid: significant increase
JNK; 4HNE 25 nM alone
  JNK phosphorylation: potent inducer of JNK phosphorylation
p53
  activation of p53: induced its activation
PC12 cells; 4HNE 25 nM
  toxic effects / apoptosis: did not show toxic effects or induce apoptosis
PC12 cells; 4HNE 100 nM
  apoptosis: Induction of apoptosis

## Nc1ncnc2c1nc(Sc1ccc(Cl)cc1)n2[C@@H]1O[C@@H]2COP(=O)(O)O[C@H]2[C@H]1O [8-(4-chlorophenylthio)-cAMP]
JNK; pretreatment with inhibitor of JNK activation, 4HNE
  4HNE-induced JNK phosphorylation: prevented 4HNE-induced JNK phosphorylation

## OO [H2O2]
[1]; H2O2 100 μM
  fluorescence due to antibody binding to 4HNE-protein adducts: bright fluorescence

## CC1=C(/C=C/C(C)=C/C=C/C(C)=C/C(=O)O)C(C)(C)CCC1 [Retinoic Acid]
SH-SY5Y cells; observed Day 2
  DIFFERENTIATION: ++++ (Approximately 100% of the cells)
SH-SY5Y cells; observed Day 8
  DIFFERENTIATION: + (Approximately 25% of the cells)
SH-SY5Y cells; SH-SY5Y cells, retinoic acid 20 μM
  onset of toxicity of retinoic acid: started showing signs of toxicity by day 6
SH-SY5Y cells; SH-SY5Y cells, retinoic acid 40 μM
  toxicity of retinoic acid: toxicity developed too rapidly
